Measured values from patent US8921416B2, “Dronedarone solid dispersion and preparation method thereof” (Jiangsu Hengrui Medicine Co., Ltd., priority 2010, dated 2014).
Where a name gives a salt, the structure may show the parent alone.

Key:
[1] = 24 h solubility of solid dispersions in PBS pH6.8; type: physicochemical; details: 37 °C, pH 6.8, aqueous buffer, thermodynamic from solid
Description: The weight ratio of the drug to the carrier was 1:5. Different hydrophilic polymeric carrier materials were selected from the group consisting of polyethylene glycol 6000, poloxamer 188, PVP K30, Klucel® EF, Plasdone® S-630, mannitol and combinations thereof respectively. 12 parts by weight of dichloromathane were added into the drug and carrier mixture, and was dissolved by stirring. Then the solution was transferred to a vacuum oven, maintained at 55° C., dried under reduced pressure for 48 h. Then the dry mass was crushed with a 100 mesh sieve, thereby the solid dispersion of dronedarone was obtained. The solubilities of the solid dispersion in the phosphate buffered saline (PBS) at pH6.8 were measured as follows.
24 h Solubility Determination: aliquots of the prepared solid dispersion were added into a 100 ml conical flask respectively. Then 50 ml PBS pH6.8 were added. The conical flask was sealed and placed in a thermostatic waterbath shaker and shaked at a set temperature of 37° C. for 24 h. After 24 hours, 10 mL of the solution were taken and filtrated. The initial 4 mL of the filtrate were abandoned and the subsequent filtrate were taken and diluted with PBS pH6.8 to a corresponding folds. The UV absorbance at 290 nm was measured with a UV spectrophotometer. Then the drug solubilities were calculated.

[2] = pH=7; cited from earlier work

Row | solubility at 24 h [1] | Compound | solubility in an aqueous solution [2]
1 | 12 µg/mL | CCCCc1oc2ccc(NS(C)(=O)=O)cc2c1C(=O)c1ccc(OCCCN(CCCC)CCCC)cc1 [Dronedarone hydrochloride] | –
2 | – | CCCCc1oc2ccc(NS(C)(=O)=O)cc2c1C(=O)c1ccc(OCCCN(CCCC)CCCC)cc1 [dronedarone, N-(2-Butyl-3-(4-(3-(dibutylamino)propoxy)benzoyl)-5-benzofuranyl)methanesulfonamide] | about 10 μg/ml
